Measurements published in patent publication US20180193493A1, “RENAL IMAGING AGENT” (NIHON MEDI-PHYSICS CO., LTD., priority 2014, published 2018).

Experiments:
[1] = system: CKD model animals (adriamycin-treated Lewis rats), kidneys excluding the renal pelvis; assay: PET imaging (static, SUV) in CKD models; format: in vivo
Protocol: (§1) Adriamycin (from Wako Pure Chemical Industries, Ltd., 7.5 mg/kg) was administered to 13 Lewis rats (male, 8-week-old, available from Japan SLC, Inc.) via the tail vein, and urinary protein was measured in accordance with the Bradford method on day 13 after the administration, for 11 cases excluding two dead cases. Of these, four cases having a high urinary protein level were selected as CKD model animals, and used in the below-described examples on day 14 after the administration of adriamycin.
(§2) ^18F-HIC101 (radiochemical purity: 84.2%) was administered to the four CKD models prepared in Example 1 at 18.6±0.9 MBq/rat and to four healthy models at 17.0±2.7 MBq/rat, and after 80 minutes from the administration, static imaging was performed using a PET system for animals (eXplore Vista from GE). The collection conditions were 10 minutes at an energy window of 250 to 700 keV. The collected data were reconstructed and imaged using the 3D-OSEM method. From the images, the average of maximum values of SUV (standardized uptake value) of the kidneys (the region of interest (ROI) was set excluding the renal pelvis) and the average value of SUV of normal tissue in each slice were measured. Based on these values, the lesion-to-normal tissue ratio and the normal kidney-to-normal tissue ratio were used for evaluation. Student's t-test was used for statistical analysis of the measured results.
(§3) ^18F-FMISO (radiochemical purity: 96% or more) was administered to the four CKD models prepared in Example 1 at 18.7±1.1 MBq/rat and to four healthy models at 19.5±0.69 MBq/rat, and after 80 minutes from the administration, static imaging was performed using a PET system for animals (eXplore Vista from GE). One case each from each of the groups was placed under anesthesia again after the PET imaging, and imaging was performed after 180 minutes from the administration. The collection conditions were 10 minutes at an energy window of 250 to 700 keV, and the collected data were reconstructed and imaged using the 3D-OSEM method. From the images, the average of maximum values of SUV of the kidneys (the region of interest (ROI) was set excluding the renal pelvis) and the average value of SUV of normal tissue in each slice were measured. Based on these values, the lesion-to-normal tissue ratio and the normal kidney-to-normal tissue ratio were used for evaluation. Student's t-test was used for statistical analysis of the measured results.

[2] = system: healthy models (physiological saline-treated Lewis rats); assay: Experiment of in vivo distribution in healthy models; conditions: healthy model; 100 minutes after administration
Protocol: (§4) As healthy models, four cases prepared by administering an equivalent amount of physiological saline instead of adriamycin were used.
(§5) After the completion of the PET imaging in Example 2, these rats were placed under anesthesia until 100 minutes after the administration, and were sacrificed by exsanguination. Then, the left and right kidneys, blood, brain, lung, heart, liver, spleen, stomach, small intestine, large intestine, adrenal gland, muscles, bones, fat around the kidneys, urine, and the remaining whole body were extracted, and weights and amounts of radioactivity were measured. Student's t-test was used for statistical analysis of the results.
as §5, with “Three cases from each of” for “After”, “groups that underwent” for “completion of”, “imaging after 80 minutes from the administration” for “imaging”, “5, as well as one case from each of the groups that had not undergone PET imaging,” for “2, these rats”

[3] = system: healthy models (physiological saline-treated Lewis rats), kidneys excluding the renal pelvis; assay: PET imaging (static, SUV) in healthy models; format: in vivo
Protocol: as §4, §2, §3

[4] = system: CKD model animals (adriamycin-treated Lewis rats); assay: Experiment of in vivo distribution in CKD models; conditions: 100 minutes after administration
Protocol: as §1, §5
as §5, with “Three cases from each of” for “After”, “groups that underwent” for “completion of”, “imaging after 80 minutes from the administration” for “imaging”, “5, as well as one case from each of the groups that had not undergone PET imaging,” for “2, these rats”

[5] = CKD model group, PET after 80 min from administration
[6] = CKD model group, PET after 80 min from administration, ROI excluding renal pelvis
[7] = healthy model group, PET after 80 min from administration
[8] = healthy model group, PET after 80 min from administration, ROI excluding renal pelvis
[9] = CKD model, one case, PET after 180 min from administration
[10] = healthy model, one case, PET after 180 min from administration

O=[N+]([O-])c1nccn1CC(CO)(CO)C[18F] [^18F-HIC101, 2-[^18F]fluoromethyl-2-((2-nitro-1H-imidazol-1-yl)methyl)-1,3-propanediol]
Normal Tissue SUV Average Value [1, 5]: 0.46 ± 0.04^$
Renal Tissue (Lesion or Normal)-to-Normal Tissue Ratio, Left [1, 5]: 11.59 ± 1.88
Renal Tissue (Lesion or Normal)-to-Normal Tissue Ratio, Right [1, 5]: 11.33 ± 1.57
Renal Tissue SUV Maximum Value, Left [1, 5]: 5.25 ± 0.55
Renal Tissue SUV Maximum Value, Right [1, 6]: 5.17 ± 0.70
SUV maximum value of renal tissue in the example shown in FIG. 1 ([1]; MIP PET image of FIG. 1, after 80 minutes from administration): 10
SUV maximum value of the CKD model examined for HIF-1α expression, (left) ([1]; individual CKD model of FIG. 3, (left)): 4.30
SUV maximum value of the CKD model examined for HIF-1α expression, (right) ([1]; individual CKD model of FIG. 3, (right)): 5.12
Comparison of uptake in the CKD models between the two agents ([1]; summary of Examples 2 to 6): higher than the uptake of ^18F-FMISO
Uptake into renal tissue excluding the renal pelvis, CKD models versus healthy models ([1]; summary of Examples 2 to 6): uptaken into the renal tissue excluding the renal pelvis in the CKD models significantly, compared with the healthy models
In vivo distribution (radioactivity uptake), Blood [2]: 0.08 ± 0.03
In vivo distribution (radioactivity uptake), Heart [2]: 0.09 ± 0.03
In vivo distribution (radioactivity uptake), Kidney (Left) [2]: 1.17 ± 0.61
In vivo distribution (radioactivity uptake), Kidney (Right) [2]: 1.01 ± 0.24
In vivo distribution (radioactivity uptake), Large Intestine [2]: 0.32 ± 0.44
In vivo distribution (radioactivity uptake), Liver [2]: 0.23 ± 0.06
In vivo distribution (radioactivity uptake), Lung [2]: 0.08 ± 0.03
In vivo distribution (radioactivity uptake), Muscles [2]: 0.09 ± 0.03
In vivo distribution (radioactivity uptake), Small Intestine [2]: 4.50 ± 0.70
In vivo distribution (radioactivity), Urine [2]: 34.4 ± 23.3 % ID
Normal Tissue SUV Average Value [3, 7]: 0.37 ± 0.06
Renal Tissue (Lesion or Normal)-to-Normal Tissue Ratio, Left [3, 7]: 3.69 ± 0.37
Renal Tissue (Lesion or Normal)-to-Normal Tissue Ratio, Right [3, 7]: 3.77 ± 0.66
Renal Tissue SUV Maximum Value, Left [3, 7]: 1.37 ± 0.28
Renal Tissue SUV Maximum Value, Right [3, 8]: 1.42 ± 0.43
SUV maximum value of the healthy model examined for HIF-1α expression ([3]; individual healthy model of FIG. 3): 1.06
In vivo distribution (radioactivity uptake), Blood [4]: 0.16 ± 0.04
In vivo distribution (radioactivity uptake), Heart [4]: 0.18 ± 0.04
In vivo distribution (radioactivity uptake), Kidney (Left) [4]: 2.11 ± 0.44
In vivo distribution (radioactivity uptake), Kidney (Right) [4]: 2.60 ± 0.58
In vivo distribution (radioactivity uptake), Large Intestine [4]: 3.17 ± 0.08
In vivo distribution (radioactivity uptake), Liver [4]: 0.34 ± 0.05
In vivo distribution (radioactivity uptake), Lung [4]: 0.18 ± 0.05
In vivo distribution (radioactivity uptake), Muscles [4]: 0.26 ± 0.04
In vivo distribution (radioactivity uptake), Small Intestine [4]: 0.25 ± 0.82
In vivo distribution (radioactivity), Urine [4]: 29.9 ± 14.9 % ID

O=[N+]([O-])c1nccn1CC(O)C[18F] (stereo not shown) [^18F-FMISO, 1-[^18F]fluoro-3-(2-nitro-1H-imidazol-1-yl)-2-propanol]
Normal Tissue SUV Average Value [1, 5]: 0.94 ± 0.11
Renal Tissue (Lesion or Normal)-to-Normal Tissue Ratio, Left [1, 5]: 2.11 ± 0.14
Renal Tissue (Lesion or Normal)-to-Normal Tissue Ratio, Right [1, 5]: 2.22 ± 0.10
Renal Tissue SUV Maximum Value, Left [1, 5]: 1.97 ± 0.15
Renal Tissue SUV Maximum Value, Right [1, 6]: 2.08 ± 0.22
Normal Tissue SUV Average Value [1, 9]: 0.87
Renal Tissue (Lesion or Normal)-to-Normal Tissue Ratio, Left [1, 9]: 3.17
Renal Tissue (Lesion or Normal)-to-Normal Tissue Ratio, Right [1, 9]: 2.87
Renal Tissue SUV Maximum Value, Left [1, 9]: 2.77
Renal Tissue SUV Maximum Value, Right [1, 9]: 2.51
Uptake in renal cortex versus renal pelvis ([1]; PET images after 180 minutes compared with after 80 minutes from administration): a tendency toward a higher uptake in the renal cortex than in the renal pelvis
Change of SUV maximum value (ROI analysis) ([1]; after 180 minutes versus after 80 minutes from administration): a tendency for the SUV maximum value to increase more than that after 80 minutes from the administration
Uptake into renal tissue excluding the renal pelvis, CKD models versus healthy models ([1]; summary of Examples 2 to 6): uptaken into the renal tissue excluding the renal pelvis in the CKD models significantly, compared with the healthy models
In vivo distribution (radioactivity uptake), Blood [2]: 0.30 ± 0.02
In vivo distribution (radioactivity uptake), Heart [2]: 0.34 ± 0.02
In vivo distribution (radioactivity uptake), Kidney (Left) [2]: 0.53 ± 0.03
In vivo distribution (radioactivity uptake), Kidney (Right) [2]: 0.55 ± 0.03
In vivo distribution (radioactivity uptake), Large Intestine [2]: 1.52 ± 0.15
In vivo distribution (radioactivity uptake), Liver [2]: 0.50 ± 0.04
In vivo distribution (radioactivity uptake), Lung [2]: 0.31 ± 0.02
In vivo distribution (radioactivity uptake), Muscles [2]: 0.30 ± 0.02
In vivo distribution (radioactivity uptake), Small Intestine [2]: 0.74 ± 0.11
In vivo distribution (radioactivity), Urine [2]: 9.50 ± 1.75 % ID
Normal Tissue SUV Average Value [3, 7]: 0.89 ± 0.03
Renal Tissue (Lesion or Normal)-to-Normal Tissue Ratio, Left [3, 7]: 1.95 ± 0.05
Renal Tissue (Lesion or Normal)-to-Normal Tissue Ratio, Right [3, 7]: 1.89 ± 0.13
Renal Tissue SUV Maximum Value, Left [3, 7]: 1.74 ± 0.08
Renal Tissue SUV Maximum Value, Right [3, 8]: 1.68 ± 0.14
Normal Tissue SUV Average Value [3, 10]: 0.72
Renal Tissue (Lesion or Normal)-to-Normal Tissue Ratio, Left [3, 10]: 2.31
Renal Tissue (Lesion or Normal)-to-Normal Tissue Ratio, Right [3, 10]: 2.26
Renal Tissue SUV Maximum Value, Left [3, 10]: 1.67
Renal Tissue SUV Maximum Value, Right [3, 10]: 1.63
In vivo distribution (radioactivity uptake), Blood [4]: 0.44 ± 0.02
In vivo distribution (radioactivity uptake), Heart [4]: 0.53 ± 0.01
In vivo distribution (radioactivity uptake), Kidney (Left) [4]: 1.08 ± 0.28
In vivo distribution (radioactivity uptake), Kidney (Right) [4]: 1.09 ± 0.29
In vivo distribution (radioactivity uptake), Large Intestine [4]: 1.14 ± 0.10
In vivo distribution (radioactivity uptake), Liver [4]: 0.89 ± 0.28
In vivo distribution (radioactivity uptake), Lung [4]: 0.48 ± 0.02
In vivo distribution (radioactivity uptake), Muscles [4]: 0.47 ± 0.02
In vivo distribution (radioactivity uptake), Small Intestine [4]: 1.54 ± 0.67
In vivo distribution (radioactivity), Urine [4]: 2.60 ± 2.16 % ID
